Measurements taken from patent US11084800B2 (Achillion Pharmaceuticals, Inc., priority 2017, dated 2021).

What follows are compounds tested against Human Factor D (Homo sapiens (Human), UniProt P00746) (assay: Human Factor D Assay). Settings: Table 6; Factor D 80 nM, substrate Z-L-Lys-SBz; read-out: IC50.
Type: biochemical
In short: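 Thioester substrate Z-L-Lys-SBz (100 μM) with Ellman's reagent DTNB (100 μM) reports activity of 80 nM human serum-derived enzyme, kinetically at 405 nm over 30 min. Compound preincubated 5 min, room temperature, pH 7.5 Tris/1 M NaCl; IC50 by nonlinear fit of rates.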

Human Factor D, sequence (P00746 26-253): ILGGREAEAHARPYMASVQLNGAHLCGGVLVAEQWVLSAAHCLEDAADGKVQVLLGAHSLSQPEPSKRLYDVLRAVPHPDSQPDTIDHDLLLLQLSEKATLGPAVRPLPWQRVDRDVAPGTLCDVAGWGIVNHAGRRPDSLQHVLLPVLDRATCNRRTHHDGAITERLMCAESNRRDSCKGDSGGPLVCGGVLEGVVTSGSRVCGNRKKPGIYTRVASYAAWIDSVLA

SMILES | IC50 [µM]
CCN(CC)C[C@@]12C[C@@H](C(=O)Nc3nc(Br)ccc3C)N(C(=O)Cn3nc(C(C)=O)c4cc(-c5cnc(C)nc5)cc(C)c43)[C@@H]1C2 [Compound 118, (1R,3S,5R)-2-(2-(3-Acetyl-7-methyl-5-(2-methylpyrimidin-5-yl)-1H-indazol-1-yl)acetyl)-N-(6-bromo-3-methylpyridin-2-yl)-5-((diethylamino)methyl)-2-azabicyclo[3.1.0]hexane-3-carboxamide] | < 1
CC(=O)c1nn(CC(=O)N2[C@H](C(=O)Nc3nc(Br)ccc3C)C[C@@]3(CN4C[C@H]5CCC[C@H]5C4)C[C@@H]23)c2ccc(-c3cnc(C)nc3)cc12 [Compound 119, (1R,3S,5R)-2-(2-(3-Acetyl-5-(2-methylpyrimidin-5-yl)-1H-indazol-1-yl)acetyl)-N-(6-bromo-3-methylpyridin-2-yl)-5-(((3aR,6aS)-hexahydrocyclopenta[c]pyrrol-2(1H)-yl)methyl)-2-azabicyclo[3.1.0]hexane-3-carboxamide] | < 1
CNc1ncc(-c2ccc3c(c2)c(C(C)=O)nn3CC(=O)N2[C@H](C(=O)Nc3nc(Br)ccc3C)C[C@@]3(C)C[C@@H]23)cn1 [Compound 120, (1R,3S,5R)-2-(2-(3-Acetyl-5-(2-(methylamino)pyrimidin-5-yl)-1H-indazol-1-yl)acetyl)-N-(6-bromo-3-methylpyridin-2-yl)-5-methyl-2-azabicyclo[3.1.0]hexane-3-carboxamide] | < 1
C=CCCCCN(C)C[C@@]12C[C@@H](C(=O)Nc3nc(Br)ccc3C=C)N(C(=O)Cn3nc(C(C)=O)c4cc(-c5cnc(C)nc5)ccc43)[C@@H]1C2 [Compound 123, (1R,3S,5R)-2-(2-(3-Acetyl-5-(2-methylpyrimidin-5-yl)-1H-indazol-1-yl)acetyl)-N-(6-bromo-3-vinylpyridin-2-yl)-5-((hex-5-en-1-yl(methyl)amino)methyl)-2-azabicyclo[3.1.0]hexane-3-carboxamide] | < 1
CC(=O)c1nn(CC(=O)N2[C@H](C(=O)Nc3nc(Br)ccc3C)C[C@@]3(C)C[C@@H]23)c2c(C#N)cc(-c3cnc(C)nc3)cc12 [Compound 124, (1R,3S,5R)-2-(2-(3-Acetyl-7-cyano-5-(2-methylpyrimidin-5-yl)-1H-indazol-1-yl)acetyl)-N-(6-bromo-3-methylpyridin-2-yl)-5-methyl-2-azabicyclo[3.1.0]hexane-3-carboxamide] | < 1
CC(=O)c1nn(CC(=O)N2[C@H](C(=O)Nc3nc(Br)ccc3C)C[C@@]3(C)C[C@@H]23)c2ccc(-c3cnc(N(C)C)nc3)cc12 [Compound 125, (1R,3S,5R)-2-(2-(3-Acetyl-5-(2-(dimethylamino)pyrimidin-5-yl)-1H-indazol-1-yl)acetyl)-N-(6-bromo-3-methylpyridin-2-yl)-5-methyl-2-azabicyclo[3.1.0]hexane-3-carboxamide] | < 1
CC(=O)c1nn(CC(=O)N2[C@H](C(=O)O)C[C@@]3(C)C[C@@H]23)c2c(C)cc(-c3cnc(C)nc3)cc12 [Compound 126, (1R,3S,5R)-2-(2-(3-acetyl-7-methyl-5-(2-methylpyrimidin-5-yl)-1H-indazol-1-yl)acetyl)-5-methyl-2-azabicyclo[3.1.0]hexane-3-carboxylic acid] | > 10
CC(=O)c1nn(CC(=O)N2[C@H](C(=O)Nc3nc(Br)ccc3C)C[C@@]3(CN4CC5(COC5)C4)C[C@@H]23)c2c(C)cc(-c3cnc(C)nc3)cc12 [Compound 127, (1R,3S,5R)-5-(2-Oxa-6-azaspiro[3.3]heptan-6-ylmethyl)-2-(2-(3-acetyl-7-methyl-5-(2-methylpyrimidin-5-yl)-1H-indazol-1-yl)acetyl)-N-(6-bromo-3-methylpyridin-2-yl)-2-azabicyclo[3.1.0]hexane-3-carboxamide] | < 1
CC(=O)c1nn(CC(=O)N2[C@H](C(=O)Nc3nc(Br)ccc3C)C[C@@]3(CN4C[C@H]5CCC[C@H]5C4)C[C@@H]23)c2c(C)cc(-c3cnc(C)nc3)cc12 [Compound 128, (1R,3S,5R)-2-(2-(3-Acetyl-7-methyl-5-(2-methylpyrimidin-5-yl)-1H-indazol-1-yl)acetyl)-N-(6-bromo-3-methylpyridin-2-yl)-5-(((3aR,6aS)-hexahydrocyclopenta[c]pyrrol-2(1H)-yl)methyl)-2-azabicyclo[3.1.0]hexane-3-carboxamide] | < 1
CC(=O)c1nn(CC(=O)N2[C@H](C(=O)Nc3nc(Br)ccc3C)C[C@@]3(CN4CC5(CCCC5)C4)C[C@@H]23)c2c(C)cc(-c3cnc(C)nc3)cc12 [Compound 129, (1R,3S,5R)-5-(2-Azaspiro[3.4]octan-2-ylmethyl)-2-(2-(3-acetyl-7-methyl-5-(2-methylpyrimidin-5-yl)-1H-indazol-1-yl)acetyl)-N-(6-bromo-3-methylpyridin-2-yl)-2-azabicyclo[3.1.0]hexane-3-carboxamide] | < 1
CC(=O)c1nn(CC(=O)N2[C@H](C(=O)Nc3nc(Br)ccc3C)C[C@@]3(C)C[C@@H]23)c2ccc(-c3cnc(C)nc3)c(F)c12 [Compound 130, (1R,3S,5R)-2-(2-(3-Acetyl-4-fluoro-5-(2-methylpyrimidin-5-yl)-1H-indazol-1-yl)acetyl)-N-(6-bromo-3-methylpyridin-2-yl)-5-methyl-2-azabicyclo[3.1.0]hexane-3-carboxamide] | < 1
CC(=O)c1nn(CC(=O)N2[C@H](C(=O)Nc3nc(Br)ccc3C)C[C@@]3(C)C[C@@H]23)c2c(C3CC3)cc(-c3cnc(C)nc3)cc12 [Compound 131, (1R,3S,5R)-2-(2-(3-Acetyl-7-cyclopropyl-5-(2-methylpyrimidin-5-yl)-1H-indazol-1-yl)acetyl)-N-(6-bromo-3-methylpyridin-2-yl)-5-methyl-2-azabicyclo[3.1.0]hexane-3-carboxamide] | < 1
CCNC[C@@]12C[C@@H](C(=O)Nc3nc(Br)ccc3C)N(C(=O)Cn3nc(C(C)=O)c4cc(-c5cnc(C)nc5)cc(C)c43)[C@@H]1C2 [Compound 132, (1R,3S,5R)-2-(2-(3-Acetyl-7-methyl-5-(2-methylpyrimidin-5-yl)-1H-indazol-1-yl)acetyl)-N-(6-bromo-3-methylpyridin-2-yl)-5-((ethylamino)methyl)-2-azabicyclo[3.1.0]hexane-3-carboxamide] | < 1
CC(=O)c1nn(CC(=O)N2[C@H](C(=O)Nc3nc(Br)ccc3C)C[C@@]3(C)C[C@@H]23)c2c(C(F)(F)F)cc(-c3cnc(C)nc3)cc12 [Compound 133, (1R,3S,5R)-2-(2-(3-Acetyl-5-(2-methylpyrimidin-5-yl)-7-(trifluoromethyl)-1H-indazol-1-yl)acetyl)-N-(6-bromo-3-methylpyridin-2-yl)-5-methyl-2-azabicyclo[3.1.0]hexane-3-carboxamide] | < 1
C=CCOCc1ccc(Br)nc1NC(=O)[C@@H]1C[C@@]2(C=C)C[C@H]2N1C(=O)Cn1nc(C(C)=O)c2cc(-c3cnc(C)nc3)ccc21 [Compound 134, (1R,3S,5R)-2-(2-(3-Acetyl-5-(2-methylpyrimidin-5-yl)-1H-indazol-1-yl)acetyl)-N-(3-((allyloxy)methyl)-6-bromopyridin-2-yl)-5-vinyl-2-azabicyclo[3.1.0]hexane-3-carboxamide] | < 1
CC(=O)c1nn(CC(=O)N2[C@H](C(=O)Nc3nc(Cl)ccc3CN(C)C)C[C@@]3(C)C[C@@H]23)c2ccc(-c3cnc(C)nc3)cc12 [Compound 135, (1R,3S,5R)-2-(2-(3-Acetyl-5-(2-methylpyrimidin-5-yl)-1H-indazol-1-yl)acetyl)-N-(6-chloro-3-((dimethylamino)methyl)pyridin-2-yl)-5-methyl-2-azabicyclo[3.1.0]hexane-3-carboxamide] | < 1
CC(=O)c1nn(CC(=O)N2[C@H](C(=O)Nc3nc(Br)ccc3CN(C)C)C[C@@]3(C)C[C@@H]23)c2c(C)cc(-c3cnc(C)nc3)cc12 [Compound 136, (1R,3S,5R)-2-(2-(3-Acetyl-7-methyl-5-(2-methylpyrimidin-5-yl)-1H-indazol-1-yl)acetyl)-N-(6-bromo-3-((dimethylamino)methyl)pyridin-2-yl)-5-methyl-2-azabicyclo[3.1.0]hexane-3-carboxamide] | < 1
CC(=O)c1nn(CC(=O)N2[C@H](C(=O)Nc3nc(Cl)ccc3CN(C)C)C[C@@]3(C)C[C@@H]23)c2c(C)cc(-c3cnc(C)nc3)cc12 [Compound 137, (1R,3S,5R)-2-(2-(3-Acetyl-7-methyl-5-(2-methylpyrimidin-5-yl)-1H-indazol-1-yl)acetyl)-N-(6-chloro-3-((dimethylamino)methyl)pyridin-2-yl)-5-methyl-2-azabicyclo[3.1.0]hexane-3-carboxamide] | < 1
CC(=O)c1nn(CC(=O)N2[C@H](C(=O)Nc3nc(Br)ccc3CN3CCOCC3)C[C@@]3(C)C[C@@H]23)c2ccc(-c3cnc(C)nc3)cc12 [Compound 138, (1R,3S,5R)-2-(2-(3-Acetyl-5-(2-methylpyrimidin-5-yl)-1H-indazol-1-yl)acetyl)-N-(6-bromo-3-(morpholinomethyl)pyridin-2-yl)-5-methyl-2-azabicyclo[3.1.0]hexane-3-carboxamide] | < 1
CC(=O)c1nn(CC(=O)N2[C@H](C(=O)Nc3nc(Cl)ccc3CN3CCOCC3)C[C@@]3(C)C[C@@H]23)c2ccc(-c3cnc(C)nc3)cc12 [Compound 139, (1R,3S,5R)-2-(2-(3-Acetyl-5-(2-methylpyrimidin-5-yl)-1H-indazol-1-yl)acetyl)-N-(6-chloro-3-(morpholinomethyl)pyridin-2-yl)-5-methyl-2-azabicyclo[3.1.0]hexane-3-carboxamide] | < 1
Cc1ncc(-c2cc(C)c3c(c2)c(C(C)O)nn3CC(=O)N2[C@H](C(=O)Nc3nc(Br)ccc3C)C[C@@]3(C)C[C@@H]23)cn1 (stereo partly shown) [Compound 140] | < 1
CC(=O)c1nn(CC(=O)N2C[C@H]3C[C@H]3[C@H]2C(=O)Nc2nc(Br)ccc2C)c2cnc(-c3cnc(C)nc3)cc12 [Compound 141, (1R,2S,5S)-3-(2-(3-Acetyl-5-(2-methylpyrimidin-5-yl)-1H-pyrazolo[3,4-c]pyridin-1-yl)acetyl)-N-(6-bromo-3-methylpyridin-2-yl)-3-azabicyclo[3.1.0]hexane-2-carboxamide] | < 1
